Measurements published in the NIST ThermoML archive (doi:10.1021/acs.jced.9b00145).

Experiment: xn = mol fraction of the nth substance listed
Details: 100 kPa, Liquid, Vibrating tube method, x2 = 0.3333

NC(N)=O [urea] + C[N+](C)(C)CCO.[Cl-]
Details | mass density [kg/m3]
293.15 K | 1199.42
298.15 K | 1196.68
303.15 K | 1193.96
308.15 K | 1191.19
313.15 K | 1188.52
318.15 K | 1185.87
323.15 K | 1183.2
328.15 K | 1180.53
333.15 K | 1177.87
338.15 K | 1175.22
